In patent US12070457B2, “Substituted pyridines, pyridazines, pyrimidines, and 1,2,3-triazines as bruton's tyrosine kinase inhibitors” (HUTCHISON MEDIPHARMA LIMITED, priority 2020, dated 2024):

Tested on: TMD8 subcutaneous xenograft (human diffuse large B-cell lymphoma cells)
Test: In vivo efficacy in TMD8 subcutaneous xenograft model
Parameters: species or system mouse
Details: 10 mg/kg and 30 mg/kg vs Ibrutinib 50 mg/kg and GDC-0853 10 mg/kg
Protocol: Example 7 Evaluation of In Vivo Efficacy of the Compound of the Present Invention in TMD8 Subcutaneous Xenograft Model
Objects: To investigate the anti-tumor activity of compound 19 in TMD8 subcutaneous xenograft model in nude mice.
Methods: Human diffuse large B-cell lymphoma cells TMD8 (acquired under license from Tokyo Medical and Dental University) were cultured in RPMI1640 medium containing 10% fetal bovine serum. 1×10^7 tumor cells suspended in RPMI1640 medium mixed well with Matrigel (purchased from Corning, USA) at 1:1 were implanted subcutaneously on the right flank of each male Balb/c nude mouse (Shanghai Lingchang Biotechnology Co., Ltd.), pretreated with cyclophosphamide (at a dose of 200 mg/kg, intraperitoneal injection 24 h before cell inoculation). […] All drugs were administered by oral gavage, once a day, and the vehicle control group was administered orally with 0.5% hydroxypropyl methylcellulose solution (pH=3).
Tumor volumes (tumor volume=0.5× long diameter× short diameter^2) and body weights of the mice were measured regularly. The tumor volume change and body weight were statistically analyzed, with p<0.05 considered statistically significant, and p<0.01 as extremely statistically significant.
The anti-tumor activity was evaluated by tumor growth inhibition. […]

## C[C@H]1CN(C2COC2)CCN1c1ccc(Nc2cc(-c3ccnc(-n4ccn5c6c(cc5c4=O)CC(C)(C)C6)c3CO)cn(C)c2=O)nc1 [Compound 19]
  anti-tumor efficacy compared with Ibrutinib or GDC-0853: statistically significant superior efficacy to Ibrutinib or GDC-0853
